According to PubChem BioAssay AID1745844 (Carcinogenic Potency Database (CPDB), 2022):
The source made the active and inactive calls. The rule behind the calls is not given here.

System: rodent lifetime carcinogenesis bioassay, tumor incidence TD50
Assay: carcinogenic potency in animals, long-term in vivo studies, CPDB compilation (AID 1745844)
Details: in drinking water, dosed 103 weeks, study length 104 weeks; for carcinogen call: site: any site (literature study), lesion: several types, types named in the paper

`Oc1ccccc1` was tested, and the carcinogen call (mouse, strain B6C3F1, females) was “negative (inactive)”, the TD50 (mouse, strain B6C3F1, females, site: lung, lesion: alveolar/bronchiolar adenoma + alveolar/bronchiolar carcinoma) was 18500 mg/kg/day and the carcinogen call (mouse, strain B6C3F1, males) was “negative (inactive)”. The TD50 (mouse, strain B6C3F1, males, site: liver, lesion: hepatocellular adenoma + hepatocellular carcinoma + neoplastic nodule) was 2450 mg/kg/day, the TD50 (mouse, strain B6C3F1, males, site: lung, lesion: alveolar/bronchiolar adenoma + alveolar/bronchiolar carcinoma) was 8290 mg/kg/day and the carcinogen call (rat, strain Fischer 344, females) was “negative (inactive)”. The TD50 (rat, strain Fischer 344, males, site: all sites, lesion: leukemia + lymphoma) was 133 mg/kg/day, the TD50 (rat, strain Fischer 344, males, site: all sites, lesion: leukemia) was 143 mg/kg/day and the TD50 (rat, strain Fischer 344, males, site: all sites, lesion: monocytic leukemia) was 143 mg/kg/day. For the same compound, the TD50 (rat, strain Fischer 344, males, site: thyroid gland, lesion: c-cell carcinoma) was 420 mg/kg/day (inactive).
